Experimental data reported in PubChem BioAssay (NCI).
Where “and” joins values, the source holds several entries; their conditions need not be identical. Equal entries are not always repeated.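 Results reflect a 48-hour exposure of cells in 96-well plates to compound at five concentrations. The concentration for 50% growth inhibition is given as GI50. The concentration for full growth arrest is given as TGI.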 Where a SMILES comes first, the peptide text is derived from it. The star is where a group is joined. Trt = c1ccc(C(c2ccccc2)(c2ccccc2)*)cc1; Cbz = O=C(OCc1ccccc1)*

What was measured:
Experiment in all cases: inhibition of tumour cell growth, NCI panel, 48 h
SF-539 CNS = tested on: SF-539 CNS
PC-3 prostate = tested on: PC-3 prostate
NCI-H23 lung = tested on: NCI-H23 lung
SNB-75 CNS = tested on: SNB-75 CNS
HOP-92 NSCLC = tested on: HOP-92 NSCLC
NCI-H522 lung = tested on: NCI-H522 lung
HS 578T breast = tested on: HS 578T breast
U251 CNS = tested on: U251 CNS
SK-MEL-5 melanoma = tested on: SK-MEL-5 melanoma
BT-549 breast = tested on: BT-549 breast

Row | SMILES | TGI (SF-539 CNS) [µM] | TGI (PC-3 prostate) | TGI (NCI-H23 lung) [µM] | TGI (SNB-75 CNS) [µM] | TGI (HOP-92 NSCLC) | TGI (NCI-H522 lung) | TGI (HS 578T breast) [µM] | TGI (U251 CNS) [µM] | TGI (SK-MEL-5 melanoma) [µM] | GI50 (SF-539 CNS) [µM] | GI50 (NCI-H23 lung) [µM] | GI50 (SNB-75 CNS) [µM] | GI50 (HOP-92 NSCLC) | GI50 (NCI-H522 lung) | GI50 (U251 CNS) [µM] | GI50 (SK-MEL-5 melanoma) | TGI (BT-549 breast) [µM] | GI50 (BT-549 breast) [µM] | GI50 (HS 578T breast) [µM] | GI50 (PC-3 prostate) [µM]
1 | Cc1ccc(CNc2ccc(Br)cc2)cc1 | > 100 | > 100 µM | > 100 | > 100 | 65.3 µM | 43.9 µM | > 100 | > 100 | 30.8 |  |  |  |  |  |  |  |  |  |  | 
2 | NC(=O)c1ccc2c(c1)-c1nc-2nc2[n-]c(nc3nc(nc4[n-]c(n1)c1ccc(C(N)=O)cc41)-c1ccc(C(N)=O)cc1-3)c1ccc(C(N)=O)cc21.[Co+2] | 33.5 |  | > 50 | > 50 | > 50 µM | > 50 µM |  | > 50 | > 50 | 12.7 | > 50 | > 50 | > 50 µM | > 50 µM | > 50 | > 50 µM |  |  |  | 
3 | Nc1ccc2n[se]nc2c1 | > 100 |  | > 100 | > 100 |  |  |  | > 100 | > 100 |  |  |  |  |  |  |  |  |  |  | 
4 | O=S1(=O)N2CN3CN(C2)CN1C3 |  |  | 44.3 | 69.2 |  | 412 µM |  |  | 124 |  |  |  |  |  |  |  |  |  |  | 
5 | CN(C)CCNC(=O)c1cccc2c1nc(-c1ccc(F)cc1)c1ccccc12 | 13.8 |  | 18.6 | 22.8 | 9.89 µM |  |  | 16.5 | 11 |  |  |  |  |  |  |  |  |  |  | 
6 | Cc1ccccc1N=Nc1c(O)ccc2ccccc12 |  | > 100 µM | > 100 | > 100 | > 100 µM | > 100 µM | > 100 | > 100 | > 100 |  |  |  |  |  |  |  | > 100 |  |  | 
7 | O=C1c2ccccc2C(=O)c2cc3c(cc21)CS(=O)C3 | > 100 |  | > 100 | > 100 | > 100 µM | > 100 µM |  | > 100 | > 100 |  |  |  |  |  |  |  |  |  |  | 
8 | Cc1nc(N)nc(N)c1CCCCc1ccc(N)cc1 | 21.7 |  | 15.8 | 29.3 | 18 µM | 16 µM |  | 17.6 | 16.5 |  |  |  |  |  |  |  |  |  |  | 
9 | O=C(c1ccc(O)cc1O)C1C(c2ccc(O)cc2)OC(c2ccc(O)cc2)C1C(=O)c1ccc(O)cc1O (configuration not stated) | 47.1 |  | 74.2 | 42.1 |  | 34.3 µM |  | 32.9 | 29.6 |  |  |  |  |  |  |  |  |  |  | 
10 | COc1ccc(-c2cc(-c3ccc(Nc4nc(Nc5ccccc5)nc(Nc5ccc(Cl)cc5)n4)cc3)nc(N)n2)cc1 | 25.8 |  | 25.9 | 48.1 | 19.3 µM | 27.1 µM | 32.2 | > 50 | 20.9 | 10.3 | 9.4 | 6.02 | 5.28 µM | 9.02 µM | 8.41 | 6.55 µM | 29.5 | 10 | 6.65 | 
11 | CC1(C)CCC(Sc2ccccc2)O1 (configuration not stated) | > 100 |  | > 100 | > 100 | > 100 µM |  |  | > 100 | > 100 |  |  |  |  |  |  |  |  |  |  | 
12 | CCCNC(=O)Nc1c([N+](=O)[O-])cc(C(F)(F)F)cc1[N+](=O)[O-] | > 100 |  | > 100 | > 100 | > 100 µM | 97.5 µM |  | > 100 | > 100 |  |  |  |  |  |  |  |  |  |  | 
13 | CCOC(=O)CSc1cc(Cl)c(C)cc1S(=O)(=O)/N=C(/N=C/c1ccc([N+](=O)[O-])s1)NNC |  | > 100 µM | 37.2 |  | 54.6 µM | 79.7 µM | 76.7 | 38.7 | 29 |  | 14.5 |  | 13.2 µM | 30.2 µM | 17 | 15.2 µM | 46.3 | 20.5 | 28 | 25
14 | COC(=O)C(=O)Cc1nc2ccccc2s1 | > 100 |  | > 100 | > 100 | > 100 µM | > 100 µM |  | > 100 | > 100 |  |  |  |  |  |  |  |  |  |  | 
15 | CCOC(=O)C(C)(NC(=O)c1ccc(NCc2ccc3nc(NC(=O)c4ccccc4)nc(NC(=O)c4ccccc4)c3c2)cc1)C(=O)OCC | 9.88 |  | 27.5 | 7 | 18.9 µM | 32.1 µM |  | 21 | 22.7 |  |  |  |  |  |  |  |  |  |  | 
16 | C/C(=N\O)c1ccc2ccc3ccccc3c2c1 | 38.8 | > 100 µM | > 100 | > 100 |  | 72.7 µM | 80.6 | > 100 | 37 |  |  |  |  |  |  |  |  |  |  | 
17 | O=C(O/N=C1\CCCC\C1=C/c1ccccc1)c1ccc([N+](=O)[O-])cc1 | > 100 |  | > 100 | > 100 | > 100 µM | > 100 µM |  | > 100 |  |  |  |  |  |  |  |  |  |  |  | 
18 | C[C@H]1CC[P+](Cc2ccccc2)(c2ccccc2)C1 (some centres not stated) | > 100 |  | > 100 | > 100 |  | > 100 µM |  | > 100 | 89.9 |  |  |  |  |  |  |  |  |  |  | 
19 | COc1cc(-c2cc(/C=C/C(=O)c3ccc(F)c(F)c3)[nH]n2)cc(OC)c1OC | 17.7 | 5.72 µM | 8.5 |  |  | 4.48 µM | 36.8 | 15.7 | 6.41 | 3.76 | 2.6 |  |  | 1.57 µM | 2.9 | 2.27 µM | 19.3 | 4.1 | 3.58 | 1.66
20 | COC1=C(N)C(=O)c2nc(-c3nc(C(=O)O)c(C)c(-c4ccc(OC)c(OC)c4O)c3N)ccc2C1=O |  | 0.203 µM and 0.0292 µM and 0.0228 µM |  |  | 0.0442 µM and 0.428 µM | 0.0214 µM and < 0.0111 µM | 0.0412 |  |  |  |  |  | 0.00666 µM and < 0.0284 µM | 0.000527 µM and 0.00336 µM and < 0.01 µM |  | 0.00116 µM and 0.0104 µM |  |  |  | 0.0298
21 | CC(=O)C1CCN(c2ccccc2)C1 (configuration not stated) | > 100 |  | > 100 | > 100 | > 100 µM | > 100 µM |  | > 100 | > 100 |  |  |  |  |  |  |  |  |  |  | 
22 | COC(=O)C(CO)NC(=O)C(CSC(c1ccccc1)(c1ccccc1)c1ccccc1)NC(=O)OCc1ccccc1 (configuration not stated) (Cbz-Cys(Trt)-Ser-OMe; configuration not given here) | 26.3 | 27.4 µM | 40.8 | 33.7 | 29.8 µM | 34.3 µM | 47.9 | 33.3 | 28.4 |  |  |  |  |  |  |  |  |  |  | 
23 | NC1NC=NC2C1N=CN2C1OC(CO)C2[O][Sn][O]C21 (configuration not stated) | > 100 |  | > 100 | > 100 | > 100 µM | > 100 µM |  | > 100 | > 100 | > 100 | > 100 | > 100 | 27.5 µM | > 100 µM | > 100 | > 100 µM |  |  |  | 
